Experimental data taken from patent US20030206968A1, “Fungicidal mixtures” (priority 1999, published 2003).

Legend:
Assay type in all cases: in vivo
Blumeria graminis [1] = experiment: Greenhouse, Blumeria graminis on wheat, 4 days residual; conditions: Example 30
Procedure: (§1) The trials are carried out under greenhouse (Examples 1 to 32) or field conditions (Examples 33 to 40) in residual or curative applications. The fungicides are applied in single treatments, or in a combination comprising an azolopyrimidine of formula I and a compound selected from the classes (A), (B) and (C) as defined above. The compounds are applied in form of an aqueous spray mix obtained from a concentrated formulation or the technical material.
(§2) 1. Seed is planted in 6 cm diameter plastic pots and maintained in the greenhouse.
(§3) 2. When the primary leaf is fully expanded in the case of cereals or several leaves are present in the case of dicots, formulated test compounds are sprayed with a three nozzle overhead fungicide sprayer to near run-off. Alternatively, a single nozzle overhead track sprayer is used for application of the compounds to cereals at a rate of 200 l/ha. Plants are then allowed to air-dry.
(§4) 3. Inoculation precedes treatment in the case of curative evaluations and follows treatment in case of residual evaluations. For inoculation of powdery mildew disease, plants are set up on greenhouse benches with bottom watering mats and inoculated by dusting them with conidia from infected plants. Between inoculation and treatment for curative evaluations and between treatment and inoculation for residual evaluations, plants are maintained in the greenhouse with bottom watering.
(§5) 4. Disease on the foliage as percent leaf area with disease symptoms/signs is evaluated about 7 days after inoculation. In the case of wheat, the tips and bases of the leaves are excluded from the evaluation. [formula]
(§6) 1. Technical compounds are formulated in a solvent/surfactant system consisting of 5% acetone and 0.05% Tween 20 in deionized water. Compounds are dissolved in acetone prior to addition of the water; the Tween 20 can be added through either the acetone or the water. Dilutions are made using the solvent/surfactant system. Formulated compounds are prepared using deionized water.
(§7) 2. Two kinds of controls are included: Plants treated with the solvent/surfactant solution and inoculated (Solvent Blank). Untreated plants which are inoculated (Inoculated Control).
(§8) Assessments of the diseases took place at the indicated day after the application of the compounds. Per cent infected leaf area infected was evaluated. The efficacy of the compounds/compounds mixtures to control the diseases was calculated by using the formula given above under item 4: […]
(§9) Synergy was calculated using the % disease control values of specific treatments for the two COLBY formula given hereinabove
Fungicidal efficacy of the mixture of (S)-Azolopyrimidine C in admixture with Azoxystrobin or Trifloxystrobin (4 days residual) against Blumeria graminis on wheat. The tank mixes were obtained from technical material of (S)-Azolopyrimidine C and Azoxystrobin or Trifloxystrobin.

Puccinia recondita [2] = experiment: Greenhouse, Puccinia recondita on wheat, 2 days curative; conditions: Example 28
Procedure: as §1, §2, §3, §4
(§10) For inoculation of non-powdery mildew diseases, an aqueous spore suspension of the pathogen is applied to the plant and the plants are kept 1-2 days in a moist infection chamber before being returned to the greenhouse where they are maintained by bottom watering.
as §5, §6, §7, §8, §9
Fungicidal efficacy of the mixture of (S)-Azolopyrimidine C in admixture with Azoxystrobin or Trifloxystrobin (2 days curative) against Puccinia recondita on wheat. The tank mixes were obtained from technical material of (S)-Azolopyrimidine C and Azoxystrobin or Trifloxystrobin.

Puccinia recondita [3] = experiment: Greenhouse, Puccinia recondita on wheat, 4 days residual; conditions: Example 31
Procedure: as §1, §2, §3, §4, §10, §5, §6, §7, §8, §9
Fungicidal efficacy of the mixture of (S)-Azolopyrimidine C in admixture with Azoxystrobin or Trifloxystrobin (4 days residual) against Puccinia recondita on wheat. The tank mixes were obtained from technical material of (S)-Azolopyrimidine C and Azoxystrobin or Trifloxystrobin.

Blumeria graminis [4] = experiment: Field test, Blumeria graminis on wheat; conditions: 17 days after application
Procedure: as §1
For the field study formulated Azolopyrimidine A, B or C and formulated compounds from the classes (A), (B) and (C) were used.
as §8, §9
The compounds are applied according to good agricultural practice in the form of an aqueous spray mix obtained from a concentrated formulation or the technical material at a rate of 400 l/ha. The disease control is evaluated according to the formula given for the greenhouse tests.
(§11) Fungicidal efficacy of the mixture of (S)-Azolopyrimidine C+cyproconazole in the field against Blumeria graminis on wheat 17 days after application The tank mix was obtained from a SC formulation containing 100 g (S)-Azolopyrimidine C per liter and an EC formulation containing 60 g cyproconazole per liter.
as §11, with “C+azoxystrobin” for “C+cyproconazole”, “a SC” for “an EC”, “250” for “60”, “azoxystrobin” for “cyproconazole”, “kg.” for “liter.”
Fungicidal efficacy of the mixture of Azolopyrimidine A and different cereal fungicides in the field against Blumeria graminis on wheat 15 days after application The tank mix was obtained from an SC formulation containing 100 g Azolopyrimidine A per liter and commercially available formulations of metconazole, epoxiconazole or kresoxim methyl, respectively.

Blumeria graminis [5] = experiment: Greenhouse, Blumeria graminis on barley, 2 days curative; conditions: Example 29
Procedure: as §1, §2, §3, §4, §5, §6, §7, §8, §9
Fungicidal efficacy of the mixture of (S)-Azolopyrimidine C in admixture with Fenhexamid (2 days curative) against Blumeria graminis on barley. The tank mixes were obtained from technical material of (S)-Azolopyrimidine C and Fenhexamid.
Fungicidal efficacy of the mixture of (S)-Azolopyrimidine C in admixture with Azoxystrobin or Trifloxystrobin (2 days curative) against Blumeria graminis on barley. The tank mixes were obtained from technical material of (S)-Azolopyrimidine C and Azoxystrobin or Trifloxystrobin.

Blumeria graminis [6] = experiment: Greenhouse, Blumeria graminis on barley, 4 days residual; conditions: Example 32
Procedure: as §1, §2, §3, §4, §5, §6, §7, §8, §9
Fungicidal efficacy of the mixture of (S)-Azolopyrimidine C in admixture with Azoxystrobin (4 days residual) against Blumeria graminis on barley. The tank mixes were obtained from technical material of (S)-Azolopyrimidine C and Azoxystrobin.

Blumeria graminis [7] = experiment: Greenhouse, Blumeria graminis on wheat, 2 days curative; conditions: Example 27
Procedure: as §1, §2, §3, §4, §5, §6, §7, §8, §9
Fungicidal efficacy of the mixture of (S)-Azolopyrimidine C in admixture with Azoxystrobin or Trifloxystrobin (2 days curative) against Blumeria graminis on wheat. The tank mixes were obtained from technical material of (S)-Azolopyrimidine C and Azoxystrobin or Trifloxystrobin.

Alternaria solani = experiment: Greenhouse, Alternaria solani on tomatoes, 1 day residual; conditions: Example 25; rate 16 g/ha
Procedure: as §1, §2, §3, §4, §10, §5, §6, §7, §8, §9
Fungicidal efficacy of the mixture of Azolopyrimidine C and different fungicides (1 day residual) against Alternaria solani on tomatoes The tank mix was obtained from an SC formulation containing 100 g Azolopyrimidine A per liter and WP formulations of dithianon (750 g/kg), captan (500 g/kg), cyprodinil (750 g/kg), mancozeb (800 g/kg), or a SC formulation of chlorothalonil (500 g/l), or a FS formulation of fenpiclonil (400 g/l), spectively.

Erysiphe cichoracearum = experiment: Greenhouse, Erysiphe cichoracearum on cucumbers, 1 day residual
Procedure: as §1, §2, §3, §4, §5, §6, §7, §8, §9
Fungicidal efficacy of the mixture of Azolopyrimidine C+triforine (1 day residual) against Erysiphe cichoracearum on cucumbers
the tank mix was obtained from a SC formulation containing 100 g of Azolopyrimidine C per liter and an DC formulation containing and 190 g of triforine per liter.
Fungicidal efficacy of the mixture of Azolopyrimidine C+cyprodinil (1 day residual) against Erysiphe cichoracearum on cucumbers The tank mix was obtained from a SC formulation containing 100 g of Azolopyrimidine C per liter and a WG formulation containing and 750 g of cyprodinil per kg.

Botrytis cinerea = experiment: Apple fruit Botrytis test, Botrytis cinerea on apple fruits, 3 day residual; conditions: Example 5
Procedure: 1. Apples (Malus X domestica Borkh.) variety Golden Delicious are disinfected by washing them briefly in 70% ethanol. After drying the apples are marked with four short equal-distant lines indicating the positions to be wounded.
2. Corresponding with the marks, four holes are poked around the apple equator with a pipette tip. 10 μl of the treatment solution are pipetted into each hole.
3. Three hours after application, 10 μl of a conidial suspension of Botrytis cinerea are pipetted into each. For incubation, the treated/inoculated apples are set up for five days.
4. Disease occurs as rotten apple tissue surrounding the inoculated wounds. The diameter of the rotten zone around each wound is measured.
1. Technical compounds are formulated in a solvent system consisting of 5% acetone and 0.05% Tween 20 in deionized water. Compounds are dissolved in acetone prior to dilution with water. Formulated compounds are prepared using deionized water.
2. Three kinds of controls are included:
Assessments of the diseases took place at the indicated day after the application of the compounds. Per cent infected leaf area infected was evaluated. The efficacy of the compounds/compounds mixtures to control the diseases was calculated by using the formula: [formula]
as §9
Fungicidal efficacy of the mixture of Azolopyrimidine A+vinclozolin (3 day residual) against Botrytis cinerea on apple fruits The tank mix was obtained from technical material of Azolopyrimidine A and a WG formulation containing 500 g vinclozolin per kg.
Fungicidal efficacy of the mixture of Azolopyrimidine A+cyprodinil (3 day residual) against Botrytis cinerea on apple fruits The tank mix was obtained from technical material of Azolopyrimidine A and a WG formulation containing 750 g cyprodinil per kg.
Fungicidal efficacy of the mixture of Azolopyrimidine A+benomyl (3 day residual) against Botrytis cinerea on apple fruits The tank mix was obtained from technical material of Azolopyrimidine A and a WP formulation containing 500 g benomyl per kg.

Leptosphaeria nodorum = experiment: Greenhouse, Leptosphaeria nodorum on wheat, 3 day residual; conditions: Example 1
Procedure: as §1, §2, §3, §4, §10, §5, §6, §7, §8, §9
Fungicidal efficacy of the mixture of Azolopyrimidine A+fenpropimorph (3 day residual) against Leptosphaeria nodorum on wheat The tank mix was obtained from technical material of Azolopyrimidine A and an EC formulation containing 750 g fenpropimorph per liter.
Fungicidal efficacy of the mixture of Azolopyrimidine A+tebuconazole (3 day residual) against Leptosphaeria nodorum on wheat The tank mix was obtained from technical material of Azolopyrimidine A and an EC formulation containing 250 g tebuconazole per liter.

CO/C=C(/C(=O)OC)c1ccccc1Oc1cc(Oc2ccccc2C#N)ncn1 [Azoxystrobin]
Observed Efficacy (Blumeria graminis [1]; dose rate 3.1 ppm): 0% | Observed Efficacy (Blumeria graminis [1]; dose rate 6.3 ppm): 0% | Observed Efficacy (Blumeria graminis [1]; dose rate 12.5 ppm): 7% | Observed Efficacy (Blumeria graminis [1]; dose rate 25 ppm): 9% | Observed Efficacy (Blumeria graminis [1]; dose rate 50 ppm): 9% | Observed Efficacy (Puccinia recondita [2]; dose rate 1.6 ppm): 0% | Observed Efficacy (Puccinia recondita [2]; dose rate 3.1 ppm): 25% | Observed Efficacy (Puccinia recondita [2]; dose rate 6.3 ppm): 48% | Observed Efficacy (Puccinia recondita [2]; dose rate 12.5 ppm): 85% | Observed Efficacy (Puccinia recondita [2]; dose rate 25 ppm): 95% | Observed Efficacy (Puccinia recondita [3]; dose rate 3.1 ppm): 0% | Observed Efficacy (Puccinia recondita [3]; dose rate 6.3 ppm): 0% | Observed Efficacy (Puccinia recondita [3]; dose rate 12.5 ppm): 0% | Observed Efficacy (Puccinia recondita [3]; dose rate 25 ppm): 0% | Observed Efficacy (Puccinia recondita [3]; dose rate 50 ppm): 8% | Observed Efficacy (Blumeria graminis [4]; azoxystrobin 75 g/ha alone): 49 | Observed Efficacy (Blumeria graminis [5]; dose rate 1.6 ppm): 0% | Observed Efficacy (Blumeria graminis [5]; dose rate 3.1 ppm): 10% | Observed Efficacy (Blumeria graminis [5]; dose rate 6.3 ppm): 21% | Observed Efficacy (Blumeria graminis [5]; dose rate 12.5 ppm): 49% | Observed Efficacy (Blumeria graminis [5]; dose rate 25 ppm): 73% | Observed Efficacy (Blumeria graminis [5]; dose rate 50 ppm): 87% | Observed Efficacy (Blumeria graminis [6]; dose rate 1.6 ppm): 0% | Observed Efficacy (Blumeria graminis [6]; dose rate 3.1 ppm): 3% | Observed Efficacy (Blumeria graminis [6]; dose rate 6.3 ppm): 3% | Observed Efficacy (Blumeria graminis [6]; dose rate 12.5 ppm): 3% | Observed Efficacy (Blumeria graminis [6]; dose rate 25 ppm): 2% | Observed Efficacy (Blumeria graminis [6]; dose rate 50 ppm): 9% | Observed Efficacy (Blumeria graminis [7]; dose rate 1.6 ppm): 0% | Observed Efficacy (Blumeria graminis [7]; dose rate 3.1 ppm): 2% | Observed Efficacy (Blumeria graminis [7]; dose rate 6.3 ppm): 21% | Observed Efficacy (Blumeria graminis [7]; dose rate 12.5 ppm): 28% | Observed Efficacy (Blumeria graminis [7]; dose rate 25 ppm): 48% | Observed Efficacy (Blumeria graminis [7]; dose rate 50 ppm): 61%

O=C1C2CC=CCC2C(=O)N1SC(Cl)(Cl)Cl (centres unmarked) [captan]
Observed Efficacy (Alternaria solani): 18%

N#Cc1c(Cl)c(Cl)c(Cl)c(C#N)c1Cl [chlorothalonil]
Observed Efficacy (Alternaria solani): 13%

CC(C1CC1)C(O)(Cn1cncn1)c1ccc(Cl)cc1 (centres unmarked) [cyproconazole]
Observed Efficacy (Blumeria graminis [4]; cyproconazole 15 g/ha alone): 86 | Observed Efficacy (Blumeria graminis [4]; cyproconazole 30 g/ha alone): 82

Cc1cc(C2CC2)nc(Nc2ccccc2)n1 [cyprodinil]
Observed Efficacy (Erysiphe cichoracearum; Example 24, dose rate 4 ppm): 0% | Observed Efficacy (Erysiphe cichoracearum; Example 24, dose rate 16 ppm): 29% | Observed Efficacy (Alternaria solani): 13% | Observed Efficacy (Botrytis cinerea; dose rate 0.1 ppm): 2% | Observed Efficacy (Botrytis cinerea; dose rate 1 ppm): 46%

N#Cc1sc2c(=O)c3ccccc3c(=O)c=2sc1C#N [dithianon]
Observed Efficacy (Alternaria solani): 50%

N#Cc1c[nH]cc1-c1cccc(Cl)c1Cl [fenpiclonil]
Observed Efficacy (Alternaria solani): 76%

CC(Cc1ccc(C(C)(C)C)cc1)CN1C[C@@H](C)O[C@@H](C)C1 (some centres unmarked) [fenpropimorph]
Observed Efficacy (Leptosphaeria nodorum; dose rate 0.5 ppm): 19% | Observed Efficacy (Leptosphaeria nodorum; dose rate 5 ppm): 15%

O=CNC(N1CCN(C(NC=O)C(Cl)(Cl)Cl)CC1)C(Cl)(Cl)Cl (centres unmarked) [triforine]
Observed Efficacy (Erysiphe cichoracearum; Example 23, dose rate 4 ppm): 0% | Observed Efficacy (Erysiphe cichoracearum; Example 23, dose rate 16 ppm): 15%

mancozeb
Observed Efficacy (Alternaria solani): 27%
